Here are results for 23 compounds from ChEMBL document CHEMBL5113484, “Synthesis and biological evaluation of novel pentanediamide derivatives as S-adenosyl-l-homocysteine hydrolase inhibitors” (Bioorg Med Chem Lett, 2022).

One data set has as its system A549. The data set can be described thus: Cytotoxicity against human A549 cells assessed as cell growth inhibition. Type of data set: functional, cell-based.
The test system of a further data set is MGC-803. Put plainly: Cytotoxicity against human MGC-803 cells assessed as cell growth inhibition. Type of data set: functional, cell-based.
The next data set has as its target Adenosylhomocysteinase (Homo sapiens, UniProt P23526). The data set can be described thus: Inhibition of SAH hydrolase (unknown origin).
The next data set concerns L02. Put plainly: Cytotoxicity against human L02 cells assessed as cell growth inhibition. Type of data set: functional, cell-based.
A further data set relates to MCF7. The data set can be described thus: Cytotoxicity against human MCF7 cells assessed as cell growth inhibition. It counts as functional, cell-based.
A further data set relates to HeLa. Put plainly: Cytotoxicity against human HeLa cells assessed as cell growth inhibition. It counts as functional, cell-based.
In data set [1] the test system is Vesicular stomatitis virus. Put plainly: Antiviral activity against Vesicular stomatitis virus assessed as viral growth inhibition. It counts as functional, organism-based.
Data set [2] is described as follows: Cytotoxicity against African green monkey Vero cells assessed as cell growth inhibition. Type of data set: toxicity, cell-based. The settings on record: chlorocebus sabaeus.
In data set [3] the test system is Respiratory syncytial virus. The data set can be described thus: Antiviral activity against Respiratory syncytial virus assessed as viral growth inhibition. Type of data set: functional, organism-based. The settings on record: human respiratory syncytial virus.
A short description of data set [4]: Selectivity index, ratio of CC50 for cytotoxicity against African green monkey Vero cells to EC50 for antiviral activity against Respiratory syncytial virus. Type of data set: toxicity, cell-based. The settings on record: read-out: Ratio CC50/EC50.
Data set [5] is described as follows: Selectivity index, ratio of CC50 for cytotoxicity against African green monkey Vero cells to EC50 for antiviral activity against Vesicular stomatitis virus. As to conditions: read-out: Ratio CC50/EC50. It counts as toxicity, cell-based.

pEC50, pIC50: −log10 of the molar value.

Adenosylhomocysteinase, sequence (P23526 whole entry): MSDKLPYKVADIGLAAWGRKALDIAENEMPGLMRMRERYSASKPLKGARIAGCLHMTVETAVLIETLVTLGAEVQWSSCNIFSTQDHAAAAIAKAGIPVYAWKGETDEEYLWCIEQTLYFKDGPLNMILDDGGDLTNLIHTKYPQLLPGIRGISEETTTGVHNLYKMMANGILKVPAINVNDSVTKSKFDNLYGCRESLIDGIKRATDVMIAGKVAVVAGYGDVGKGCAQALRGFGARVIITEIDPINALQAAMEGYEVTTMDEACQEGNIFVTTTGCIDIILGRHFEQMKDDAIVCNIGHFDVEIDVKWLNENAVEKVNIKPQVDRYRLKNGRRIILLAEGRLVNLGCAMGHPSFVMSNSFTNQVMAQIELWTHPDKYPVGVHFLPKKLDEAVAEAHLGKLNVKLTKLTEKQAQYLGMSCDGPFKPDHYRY

As to `Nc1nccc2c1ncn2[C@@H]1O[C@H](CO)[C@@H](O)[C@H]1O`, the pIC50 with A549 was 4.24; in the data set with MGC-803, 4.39; at Adenosylhomocysteinase, 5.27; in the data set with L02, 4.02; in the data set with MCF7, 4.39.
Turning to `CCNCCNC(=O)CC(CC(=O)NC1Cc2ccccc2C1)c1ccccc1` (stereo not given), the negative logarithm of the IC50 (pIC50) in the data set on A549, with HeLa, with MGC-803, in the data set with L02 and in the data set with MCF7 was less than 4.00 throughout.
With `CCNCCNC(=O)CC(CC(=O)N(CC)C1Cc2ccccc2C1)c1ccccc1` (stereo not given), the pIC50 was less than 4.00 in the data set on A549; less than 4.00 in the data set with HeLa; less than 4.00 in the data set on MGC-803; 5.46 against Adenosylhomocysteinase; less than 4.00 with L02; less than 4.00 with MCF7.
As to `CCN(CC)CCNC(=O)CC(CC(=O)NC1Cc2ccccc2C1)c1ccc(Cl)cc1` (stereo not given), the pIC50 in the data set on A549 was 4.31; with HeLa, 4.30; in the data set with MGC-803, less than 4.00; against Adenosylhomocysteinase, 5.43; in the data set on L02 it was 4.12; with MCF7, 4.12.
For `O=C(CC(CC(=O)NC1Cc2ccccc2C1)c1ccc(Cl)cc1)NCCN1CCCCC1` (stereo not given), the pIC50 is 4.55 with A549; 4.06 in the data set with HeLa; 4.05 in the data set on MGC-803; 4.15 with L02; 4.45 in the data set with MCF7.
In the case of `CN(C(=O)CC(CC(=O)NCCN1CCCC1)c1ccccc1)C1Cc2ccccc2C1` (stereo not given), the pIC50 in the data set with A549, in the data set on HeLa, in the data set on MGC-803, in the data set on L02 and with MCF7 was less than 4.00 each time.
On to `CCNCCNC(=O)CC(CC(=O)N(CC)C1Cc2ccccc2C1)c1ccc(Cl)cc1` (stereo not given), for which the pIC50 with A549 is 4.71; with HeLa it was 4.39; in the data set on MGC-803, 4.36; on Adenosylhomocysteinase, 5.42; in the data set on L02, 4.18; with MCF7, 4.84. The negative logarithm of the EC50 (pEC50) in data set [1] and in [3] was less than 4.00 in each case. Also, in [2], the CC50 turned out to be 144 µM.
In the case of `CCN(CC)CCNC(=O)CC(CC(=O)NC1Cc2ccccc2C1)c1ccccc1` (stereo not given), the pIC50 with A549 was 4.08; with HeLa, less than 4.00; in the data set with MGC-803, less than 4.00; in the data set on L02, less than 4.00; in the data set on MCF7, less than 4.00.
`CCN(C(=O)CC(CC(=O)NCCN1CCCC1)c1ccccc1)C1Cc2ccccc2C1` (stereo not given): the pIC50 with A549, in the data set with HeLa, in the data set on MGC-803, in the data set with L02 and in the data set with MCF7 was less than 4.00 throughout.
Take `Cc1ccc(C(CC(=O)NCCN2CCCCC2)CC(=O)NC2Cc3ccccc3C2)cc1` (stereo not given): the negative-log IC50 (pIC50) in the data set on A549, in the data set with HeLa, with MGC-803, with L02 and with MCF7 was less than 4.00 throughout.
Regarding `CCN(C(=O)CC(CC(=O)NCCN1CCCC1)c1ccc(Cl)cc1)C1Cc2ccccc2C1` (stereo not given), the pIC50 in the data set with A549 was 4.65; with HeLa, 4.44; in the data set on MGC-803, 4.26; with L02, 4.27; in the data set with MCF7, 4.69.
For `CCN(C(=O)CC(CC(=O)NCCN1CCCCC1)c1ccccc1)C1Cc2ccccc2C1` (stereo not given) the same measures were 4.07, less than 4.00, less than 4.00, less than 4.00 and less than 4.00.
For `O=C(CC(CC(=O)NC1Cc2ccccc2C1)c1ccccc1)NCCN1CCCCC1` (stereo not given) the same measures were less than 4.00, less than 4.00, less than 4.00, less than 4.00 and less than 4.00.
`CN(C(=O)CC(CC(=O)NCCN1CCCC1)c1ccc(Cl)cc1)C1Cc2ccccc2C1` (stereo not given): the pIC50 with A549 is 4.25; in the data set with HeLa, 4.26; in the data set with MGC-803, 4.08; with L02, 4.09; in the data set with MCF7 it was 4.12.
For `CCN(CC)CCNC(=O)CC(CC(=O)N(C)C1Cc2ccccc2C1)c1ccc(Cl)cc1` (stereo not given) the same measures were 4.67, 4.32, 4.09, 4.25 and 4.54.
Taken in the same sequence, the figures for `O=C(CC(CC(=O)NC1Cc2ccccc2C1)c1ccccc1)NCCN1CCCC1` (stereo not given) were less than 4.00, less than 4.00, less than 4.00, less than 4.00 and less than 4.00.
Taken in the same sequence, the figures for `CCNCCNC(=O)CC(CC(=O)NC1Cc2ccccc2C1)c1ccc(Cl)cc1` (stereo not given) were 4.28, 4.17, less than 4.00, 4.08 and less than 4.00.
In the case of `CCN(CC)CCNC(=O)CC(CC(=O)N(CC)C1Cc2ccccc2C1)c1ccc(Cl)cc1` (stereo not given), the negative logarithm of the IC50 (pIC50) was 4.73 in the data set on A549; 4.61 with HeLa; 4.35 in the data set on MGC-803; 5.43 against Adenosylhomocysteinase; 4.11 with L02; 4.64 with MCF7. Also, the selectivity ratio in data set [4] was determined as 1.01; in data set [5] it was 2.36. Also, the negative-log EC50 (pEC50) was 4.41 in [1] and 4.04 in data set [3]. The CC50 in data set [2] is 91.8 µM.
For the compound `CNCCNC(=O)CC(CC(=O)NC1Cc2ccccc2C1)c1ccc(Cl)cc1` (stereo not given), the pIC50 with A549, in the data set with HeLa, in the data set with MGC-803, in the data set with L02 and with MCF7 was less than 4.00 in each case.
`CCN(C(=O)CC(CC(=O)NCCN1CCCCC1)c1ccc(Cl)cc1)C1Cc2ccccc2C1` (stereo not given): the pIC50 in the data set on A549 was 4.88; with HeLa it was 4.69; with MGC-803 it was 4.67; against Adenosylhomocysteinase, 5.45; in the data set with L02, 4.07; with MCF7 it was 4.78. Besides, the selectivity ratio in data set [4] is 6.84. In addition, the pEC50 is less than 4.00 in data set [1] and 4.56 in data set [3]. The CC50 in data set [2] was 187 µM.
Take `CCN(CC)CCNC(=O)CC(CC(=O)N(C)C1Cc2ccccc2C1)c1ccccc1` (stereo not given): the pIC50 with A549, with HeLa, with MGC-803, with L02 and in the data set with MCF7 was less than 4.00 in each case.
Turning to `O=C(CC(CC(=O)NC1Cc2ccccc2C1)c1ccc(Cl)cc1)NCCN1CCCC1` (stereo not given), the pIC50 is 4.29 with A549; 4.11 with HeLa; less than 4.00 in the data set on MGC-803; 4.05 in the data set on L02; less than 4.00 in the data set on MCF7.
Regarding `O=c1[nH]cc(F)c(=O)[nH]1` [FLUOROURACIL], the pIC50 in the data set on MGC-803 was 4.41; in the data set on L02, 4.33; in the data set with MCF7, 4.31.
